Experimental data: ChEMBL document CHEMBL2074457, “LST-2, a human liver-specific organic anion transporter, determines methotrexate sensitivity in gastrointestinal cancers” (Gastroenterology, 2001)

How the values were obtained:
[1] = target: T1, Solute carrier organic anion transporter family member 1B3 (Homo sapiens, UniProt Q9NPD5); assay: (§1) TP_TRANSPORTER: uptake in Xenopus laevis oocytes; format: functional, cell-based, Oocyte; conditions: for Activity: oocyte; for Km: Xenopus laevis oocytes expressing SLCO1B3 (OATP1B3)
T1 sequence (Q9NPD5 whole entry): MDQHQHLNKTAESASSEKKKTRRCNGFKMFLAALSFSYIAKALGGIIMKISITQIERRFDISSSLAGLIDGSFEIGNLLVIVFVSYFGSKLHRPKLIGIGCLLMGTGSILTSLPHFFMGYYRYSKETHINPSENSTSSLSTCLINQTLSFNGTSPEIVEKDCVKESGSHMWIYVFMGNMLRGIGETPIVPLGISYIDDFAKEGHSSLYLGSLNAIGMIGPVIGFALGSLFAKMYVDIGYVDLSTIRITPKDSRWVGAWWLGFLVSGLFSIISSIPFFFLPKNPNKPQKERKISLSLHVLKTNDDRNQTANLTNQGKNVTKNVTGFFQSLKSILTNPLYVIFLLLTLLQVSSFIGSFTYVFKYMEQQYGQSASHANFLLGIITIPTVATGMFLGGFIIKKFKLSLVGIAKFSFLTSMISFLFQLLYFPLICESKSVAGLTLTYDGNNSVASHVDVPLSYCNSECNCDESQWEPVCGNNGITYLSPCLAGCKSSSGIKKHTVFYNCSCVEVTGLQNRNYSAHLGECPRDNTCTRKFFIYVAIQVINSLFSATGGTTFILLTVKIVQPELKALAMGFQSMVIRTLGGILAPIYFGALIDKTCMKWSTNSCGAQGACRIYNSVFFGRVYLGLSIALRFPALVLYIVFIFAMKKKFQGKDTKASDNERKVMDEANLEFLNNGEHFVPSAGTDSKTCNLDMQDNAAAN

[2] = target: T2, Solute carrier organic anion transporter family member 1B1 (Homo sapiens, UniProt Q9Y6L6); assay: as §1; format: functional, cell-based; conditions: oocyte
T2 sequence (Q9Y6L6 whole entry): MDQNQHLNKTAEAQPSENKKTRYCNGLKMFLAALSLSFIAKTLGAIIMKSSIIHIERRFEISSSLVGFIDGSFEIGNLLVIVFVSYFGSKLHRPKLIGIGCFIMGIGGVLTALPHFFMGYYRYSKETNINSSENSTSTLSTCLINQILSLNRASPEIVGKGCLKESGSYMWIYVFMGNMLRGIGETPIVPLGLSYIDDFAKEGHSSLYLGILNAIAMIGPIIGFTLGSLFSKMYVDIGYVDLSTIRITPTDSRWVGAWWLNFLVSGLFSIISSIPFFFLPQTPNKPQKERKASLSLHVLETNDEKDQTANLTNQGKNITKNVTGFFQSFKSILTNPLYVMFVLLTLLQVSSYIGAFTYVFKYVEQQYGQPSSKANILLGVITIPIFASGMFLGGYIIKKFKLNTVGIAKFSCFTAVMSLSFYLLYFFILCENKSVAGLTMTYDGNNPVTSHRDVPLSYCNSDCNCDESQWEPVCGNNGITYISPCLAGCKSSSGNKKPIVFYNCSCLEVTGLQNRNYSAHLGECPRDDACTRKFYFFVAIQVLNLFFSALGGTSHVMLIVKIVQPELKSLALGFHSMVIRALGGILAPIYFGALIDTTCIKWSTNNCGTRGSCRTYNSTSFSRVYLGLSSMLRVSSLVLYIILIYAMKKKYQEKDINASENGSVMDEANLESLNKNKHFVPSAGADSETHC

[3] = target: T1, Solute carrier organic anion transporter family member 1B3; assay: TP_TRANSPORTER: inhibition of MTX uptake (MTX: 1 uM, BSP: 100 uM) in Xenopus laevis oocytes; format: functional, cell-based; conditions: oocyte

Compound | Activity [1] | Km [1] [µM] | other results
CC1(C)SSC(C)(C)[C@@H](NC(=O)[C@@H](N)Cc2ccc(O)cc2)C(=O)NCC(=O)N[C@@H](Cc2ccccc2)C(=O)N[C@H]1C(=O)O | is not a substrate [-] |  | 
N[C@@H](Cc1cc(I)c(Oc2ccc(O)c(I)c2)c(I)c1)C(=O)O [LIOTHYRONINE] |  | 6.4 | 
CN(Cc1cnc2nc(N)nc(N)c2n1)c1ccc(C(=O)N[C@@H](CCC(=O)O)C(=O)O)cc1 [METHOTREXATE] |  | 24.7 | Activity [2]: substrate [+]
C[C@]12CC[C@H](OS(=O)(=O)O)CC1=CC[C@@H]1[C@@H]2CC[C@]2(C)C(=O)CC[C@@H]12 [PRASTERONE SULFURIC ACID] | substrate [+] |  | 
O=C1OC(c2ccc(O)c(S(=O)(=O)[O-])c2)(c2ccc(O)c(S(=O)(=O)[O-])c2)c2c(Br)c(Br)c(Br)c(Br)c21.[Na+].[Na+] [SULFOBROMOPHTHALEIN SODIUM] |  |  | Activity [3]: inhibitor [+]
